Measurements from ChEMBL document CHEMBL6083277, “Discovery of SZJK-0421: A Novel Potent, Low Toxicity, Selective Second Generation of CRM1 Inhibitor for the Treatment of Both Hematological and Solid Tumors” (J Med Chem, 2024).
The source made the active and inactive calls. No cut-off for these calls is given here.

Tests used:
[1] = Metabolic stability in human liver microsomes assessed as intrinsic clearance measured upto 60 mins in presence of NADPH by LC/MS-MS analysis; type: ADME, Microsome; conditions: read-out: CLH
[2] = Toxicity in NOD-SCID mouse assessed as loss of crypt depth in intestine at 15 to 60 mg/kg, po measured every 2 days for 21 days by H and E staining based analysis; type: organism-based; conditions: in vivo, 504 h, dose 15-60 mg/kg, time 21 day
[3] = AUC in male Sprague-Dawley rat brain at 10 mg/kg, IG measured at 6 hrs by LC-MS/MS analysis; type: ADME, organism-based; conditions: po
[4] = Toxicity in BALB/c mouse assessed as weight loss at 60 mg/kg, po administered once daily for 21 days; type: organism-based; conditions: in vivo, 504 h, time 21 day
[5] = tested on: MM1.S; test: Antitumor activity against human MM1.S cells xenografted in NOD-SCID mouse assessed as tumor growth inhibition at 15 mg/kg, po qd measured upto 21 days; type: functional; conditions: 504 h, time <= 21 day, read-out: TGI
[6] = Oral bioavailability in male Sprague-Dawley rat at 15 mg/kg measured upto 30 hrs by LC-MS/MS analysis; type: ADME, organism-based; conditions: in vivo
[7] = AUC (0 to t) in male Sprague-Dawley rat at 10 mg/kg, po measured upto 30 hrs by LC-MS/MS analysis; type: ADME, organism-based; conditions: in vivo
[8] = Metabolic stability in dog liver microsomes assessed as half life measured upto 60 mins in presence of NADPH by LC/MS-MS analysis; type: ADME, Canis lupus familiaris, Microsome
[9] = Half life in male Sprague-Dawley rat at 15 mg/kg, po measured upto 30 hrs by LC-MS/MS analysis; type: ADME, organism-based; conditions: in vivo
[10] = molecular target: T1, Ran-specific GTPase-activating protein (Homo sapiens, UniProt P43487); test: Inhibition of RANBP1 nuclear export in human U2OS cells assessed as increase in fluorescence intensity at 100 uM measured for 15 mins by DAPI staining based fluorescence microscopic analysis; type: cell-based
T1 sequence (P43487 whole entry): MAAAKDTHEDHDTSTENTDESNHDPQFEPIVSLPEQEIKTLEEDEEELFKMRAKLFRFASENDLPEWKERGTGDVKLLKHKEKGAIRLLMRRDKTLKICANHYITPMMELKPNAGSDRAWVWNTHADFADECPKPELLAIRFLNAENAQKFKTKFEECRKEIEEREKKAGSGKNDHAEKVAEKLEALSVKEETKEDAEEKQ

[11] = Cmax in male Sprague-Dawley rat at 15 mg/kg, po measured upto 30 hrs by LC-MS/MS analysis; type: ADME, organism-based; conditions: in vivo
[12] = tested on: ARH-77; test: Antiproliferative activity against human ARH-77 cells assessed as inhibition of cell growth incubated for 72 hrs by celltiter-glo assay; type: functional, cell-based; conditions: ARH-77, 72 h
[13] = tested on: SW872; test: Antiproliferative activity against human SW872 cells assessed as inhibition of cell growth incubated for 72 hrs by celltiter-glo assay; type: functional, cell-based; conditions: SW872, 72 h
[14] = Toxicity in NOD-SCID mouse assessed as appearance of large nucleus in tumor at 60 mg/kg, po measured every 2 days for 21 days by H and E staining based analysis; type: organism-based; conditions: in vivo, 504 h, time 21 day
[15] = AUC (0 to t) in male Sprague-Dawley rat at 30 mg/kg, po measured upto 30 hrs by LC-MS/MS analysis; type: ADME, organism-based; conditions: in vivo
[16] = Toxicity in NOD-SCID mouse assessed as reduction in intact nuclei in tumor at 60 mg/kg, po measured every 2 days for 21 days by H and E staining based analysis; type: organism-based; conditions: in vivo, 504 h, time 21 day
[17] = molecular target: T1, Ran-specific GTPase-activating protein; test: Inhibition of RANBP1 nuclear export in human U2OS cells assessed as increase in fluorescence intensity measured for 15 mins by DAPI staining based fluorescence microscopic analysis; type: cell-based
[18] = Antiproliferative activity against human ARP-1 cells assessed as inhibition of cell growth incubated for 72 hrs by celltiter-glo assay; type: functional, cell-based; conditions: ARP-1, 72 h
[19] = Toxicity in NOD-SCID mouse assessed as reduction in cell density in tumor at 60 mg/kg, po measured every 2 days for 21 days by H and E staining based analysis; type: organism-based; conditions: in vivo, 504 h, time 21 day
[20] = tested on: MM1.S; test: Antitumor activity against human MM1.S cells xenografted in NOD-SCID mouse assessed as tumor growth inhibition at 30 mg/kg, po qd measured upto 21 days; type: functional; conditions: 504 h, time <= 21 day, read-out: TGI
[21] = tested on: MM1.S; test: Antitumor activity against human MM1.S cells xenografted in NOD-SCID mouse assessed as tumor growth inhibition at 60 mg/kg, po qd measured upto 21 days; type: functional; conditions: 504 h, time <= 21 day, read-out: TGI
[22] = tested on: MM1.S; test: Induction of apoptosis in human MM1.S cells at 0.5 to 1 uM incubated for 48 hrs by Annexin V-FITC/PI staining based flow cytometry analysis; type: functional, cell-based; conditions: dose 0.5-1 µM
[23] = Oral bioavailability in male Sprague-Dawley rat at 30 mg/kg measured upto 30 hrs by LC-MS/MS analysis; type: ADME, organism-based; conditions: in vivo
[24] = molecular target: Exportin-1 (Homo sapiens) (UniProt O14980); test: Inhibition of CRM1 in human MM1.S cells assessed as accumulation of IkappaB protein level at 0.5 to 1 uM incubated for 24 hrs by Western blot analysis; type: cell-based; conditions: dose 0.5-1 µM
Exportin-1 (Homo sapiens), sequence (O14980 whole entry): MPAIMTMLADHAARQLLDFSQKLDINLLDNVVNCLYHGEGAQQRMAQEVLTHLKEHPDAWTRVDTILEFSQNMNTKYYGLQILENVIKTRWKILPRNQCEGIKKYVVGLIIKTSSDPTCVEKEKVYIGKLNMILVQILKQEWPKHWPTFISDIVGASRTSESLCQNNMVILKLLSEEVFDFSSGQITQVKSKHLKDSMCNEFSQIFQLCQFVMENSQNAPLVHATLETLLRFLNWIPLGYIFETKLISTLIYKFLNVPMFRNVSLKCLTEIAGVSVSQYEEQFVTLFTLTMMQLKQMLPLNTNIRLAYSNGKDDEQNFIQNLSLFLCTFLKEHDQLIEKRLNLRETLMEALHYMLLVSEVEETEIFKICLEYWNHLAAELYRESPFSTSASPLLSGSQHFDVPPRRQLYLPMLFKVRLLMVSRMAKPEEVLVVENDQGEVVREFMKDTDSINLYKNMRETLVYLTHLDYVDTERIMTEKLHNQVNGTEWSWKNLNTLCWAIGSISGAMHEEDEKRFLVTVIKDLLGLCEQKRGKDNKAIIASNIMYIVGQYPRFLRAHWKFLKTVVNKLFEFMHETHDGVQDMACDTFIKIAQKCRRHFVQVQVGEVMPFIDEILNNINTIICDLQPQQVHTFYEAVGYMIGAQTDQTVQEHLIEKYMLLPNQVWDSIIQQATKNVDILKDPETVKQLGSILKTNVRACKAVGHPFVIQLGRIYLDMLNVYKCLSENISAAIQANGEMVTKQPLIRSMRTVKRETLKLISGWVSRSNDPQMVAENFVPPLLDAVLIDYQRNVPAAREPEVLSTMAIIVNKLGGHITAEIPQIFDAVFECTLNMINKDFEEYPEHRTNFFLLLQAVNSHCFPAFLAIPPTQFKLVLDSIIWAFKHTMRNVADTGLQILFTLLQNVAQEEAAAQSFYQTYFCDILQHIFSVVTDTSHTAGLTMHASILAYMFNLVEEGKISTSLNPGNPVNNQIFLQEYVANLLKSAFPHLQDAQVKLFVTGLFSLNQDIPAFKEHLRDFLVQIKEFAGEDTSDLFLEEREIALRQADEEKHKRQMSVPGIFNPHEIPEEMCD

[25] = Metabolic stability in monkey liver microsomes assessed as intrinsic clearance measured upto 60 mins in presence of NADPH by LC/MS-MS analysis; type: ADME, Macaca mulatta, Microsome; conditions: rhesus monkey, read-out: CLH
[26] = Toxicity in NOD-SCID mouse assessed as reduction in number of tumor cells at 60 mg/kg, po measured every 2 days for 21 days by H and E staining based analysis; type: organism-based; conditions: in vivo, 504 h, time 21 day
[27] = tested on: MM1.S; test: Inhibition of CRM1 protein expression in human MM1.S cells by Western blot analysis; type: functional, cell-based; conditions: dose 0.25-1.25 µM
[28] = Metabolic stability in human liver microsomes assessed as half life measured upto 60 mins in presence of NADPH by LC/MS-MS analysis; type: ADME, Microsome
[29] = Metabolic stability in mouse liver microsomes assessed as half life measured upto 60 mins in presence of NADPH by LC/MS-MS analysis; type: ADME, Microsome
[30] = tested on: MM1.S; test: Induction of apoptosis in human MM1.S cells assessed as increase in cleaved caspase level at 0.5 to 1 uM incubated for 48 hrs by Western blot analysis; type: functional, cell-based; conditions: dose 0.5-1 µM
[31] = Toxicity in BALB/c mouse assessed as shortened intestinal tract at 90 to 120 mg/kg, po administered once daily for 21 days; type: organism-based; conditions: in vivo, 504 h, dose 90-120 mg/kg, time 21 day
[32] = Metabolic stability in dog liver microsomes assessed as intrinsic clearance measured upto 60 mins in presence of NADPH by LC/MS-MS analysis; type: ADME, Canis lupus familiaris, Microsome; conditions: read-out: CLH
[33] = Toxicity in NOD-SCID mouse implanted with human HCT-116 cells assessed as body weight loss at 60 mg/kg, po measured every 2 days for 21 days; type: organism-based; conditions: in vivo, 504 h, time 21 day
[34] = Oral bioavailability in male Sprague-Dawley rat at 10 mg/kg measured upto 30 hrs by LC-MS/MS analysis; type: ADME, organism-based; conditions: in vivo
[35] = tested on: MM1.S; test: Induction of apoptosis in human MM1.S cells assessed as increase in FOXO3A signal intensity; type: functional, cell-based
[36] = Toxicity in NOD-SCID mouse assessed as appearance of spindle shape in tumor at 60 mg/kg, po measured every 2 days for 21 days by H and E staining based analysis; type: organism-based; conditions: in vivo, 504 h, time 21 day
[37] = Half life in male Sprague-Dawley rat at 30 mg/kg, po measured upto 30 hrs by LC-MS/MS analysis; type: ADME, organism-based; conditions: in vivo
[38] = molecular target: Exportin-1 (Homo sapiens) (UniProt O14980); test: Inhibition of CRM1 in human MM1.S cells assessed as accumulation of p53 protein level at 0.5 to 1 uM incubated for 24 hrs by Western blot analysis; type: cell-based; conditions: dose 0.5-1 µM
[39] = AUC (0 to t) in male Sprague-Dawley rat at 2 mg/kg, iv measured upto 30 hrs by LC-MS/MS analysis; type: ADME, organism-based; conditions: in vivo

microsomal CLint [1]: 3.6 µL/min/mg
AUC at 6 h [3]: 378 ng·h/mL
bioavailability [6]: 52.1%
AUC(0-t) at 30 h [7]: 3610 ng·h/mL
half-life [8]: > 2 h
half-life [9]: 4 h
inhibition [10]: Active
Cmax [11]: 793 ng/mL
IC50 [13]: 753 nM
AUC(0-t) at 30 h [15]: 9000 ng·h/mL
IC50 [17]: 620 nM
bioavailability [23]: 46.3%
Activity [24]: Active
microsomal CLint [25]: 8.6 µL/min/mg
half-life [28]: > 2 h
half-life [29]: > 2 h
microsomal CLint [32]: 2.6 µL/min/mg
bioavailability [34]: 56%
half-life [37]: 3.6 h
inhibition [38]: Active
AUC(0-t) at 30 h [39]: 1300 ng·h/mL
SMILES: CONC(=O)/C(=C/n1cnc(-c2cc(C(F)(F)F)cc(C(F)(F)F)c2)n1)c1cncnc1
Activity [2]: Non-toxic
Activity [4]: Non-toxic
inhibition in vivo at 15 mg/kg [5]: 80.5%
IC50 [12]: 304 nM
Activity [14]: Non-toxic
Activity [16]: Non-toxic
IC50 [18]: 652 nM
Activity [19]: Non-toxic
inhibition in vivo at 30 mg/kg [20]: 86.6%
inhibition in vivo at 60 mg/kg [21]: 87%
Activity [22]: Active
Activity [26]: Non-toxic
inhibition [27]: Dose-dependent-effect
Activity [30]: Active
Activity [31]: Non-toxic
Activity [33]: Non-toxic
Activity [35]: Active
Activity [36]: Non-toxic
